Laboratory results: ChEMBL document CHEMBL3392951, “Discovery of indole-derived pyridopyrazine-1,6-dione γ-secretase modulators that target presenilin” (Bioorg Med Chem Lett, 2015)

Test: Octanol-water partition coefficient, log D of the compound at pH 7.4 by shake flask method
Format: physicochemical
`Cc1cn(-c2ccc3n(c2=O)CCN(Cc2cccc4ccccc24)C3=O)cn1` showed a logD of 2.7. For `Cc1cn(-c2ccc3n(c2=O)CCN(Cc2cccc4ccc(C(F)(F)F)cc24)C3=O)cn1`, the logD was 3.3. Molecule `CCn1cc(CN2CCn3c(ccc(-n4cnc(C)c4)c3=O)C2=O)c2ccc(C(F)(F)F)cc21` has a logD of 4.1.
